Laboratory results taken from paper PMC5766608, “Target engagement imaging of PARP inhibitors in small-cell lung cancer” (Nature Communications, 2018).

Columns and labels:
PARylation in LX22 cells = assay: PARylation inhibition assay (western blot for PAR); type: cell-based, human; settings: 0.1 µM, 30 min incubation
Procedure: Whole cell lysates were prepared by incubating cells with RIPA Buffer with Triton X (BP-140, Boston BioProducts) containing Protease Inhibitor (Complete EASYpacks, Sigma-Aldrich) for 30 min on ice, followed by 30 min centrifugation at 10,000 × g for 30 min at 4 °C. Protein concentration of lysates was determined using a Bicinchoninic acid (BCA) assay kit (#23225, Pierce) and following the manufacturers instructions. SDS gel electrophoresis and immunoblotting were carried out following standard procedures. Signal detection was carried out using chemiluminescent substrate (#34077, Thermo Scientific). Densitometric analysis of western blots was carried out using ImageJ (NIH). To detect PAR, we used a rabbit polyclonal anti-PAR polymer antibody (1:1000 dilution, #4336-BPC-100, Trevigen) followed by a goat anti-rabbit IgG-HRP secondary antibody (1:10,000 dilution, sc-2004, SantaCruz). B-actin was used as loading control (1:1000 dilution, A3854, Sigma-Aldrich) and was stained after stripping the blot for 30 min at room temperature using stripping buffer (Amresco).
Supplementary Figure 3 | PARylation inhibition assay.
PARPi-FL and [18F]PARPi quantify PARP inhibition, we compared their ability to inhibit PARylation
in comparison with olaparib.
inhibition. At 1 µM, the PAR signal for all three compounds is nearly completely eliminated.

PARP3 = biological target: T1, PARP3 (Homo sapiens, UniProt Q9Y6F1); assay: PARP family enzyme activity inhibition screening (BPS Bioscience); type: biochemical; settings: 100 nM inhibitor
T1 construct: purchased BPS Bioscience, San Diego, CA
T1 sequence (Q9Y6F1 1-533): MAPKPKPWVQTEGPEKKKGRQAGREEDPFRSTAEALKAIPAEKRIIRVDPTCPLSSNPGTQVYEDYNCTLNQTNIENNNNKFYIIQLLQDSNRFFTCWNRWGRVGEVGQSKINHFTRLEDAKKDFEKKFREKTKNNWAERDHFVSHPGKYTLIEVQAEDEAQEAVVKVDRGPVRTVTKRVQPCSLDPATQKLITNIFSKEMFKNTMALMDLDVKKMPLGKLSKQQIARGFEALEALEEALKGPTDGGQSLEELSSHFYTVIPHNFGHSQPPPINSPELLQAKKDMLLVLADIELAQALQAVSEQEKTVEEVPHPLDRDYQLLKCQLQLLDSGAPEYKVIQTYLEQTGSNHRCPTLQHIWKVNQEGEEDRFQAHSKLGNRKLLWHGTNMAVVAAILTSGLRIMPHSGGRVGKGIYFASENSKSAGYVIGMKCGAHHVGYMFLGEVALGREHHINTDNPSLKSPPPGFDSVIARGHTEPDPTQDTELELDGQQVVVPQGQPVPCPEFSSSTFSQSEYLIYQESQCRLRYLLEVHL
Procedure: (§1) Fig. 1 Properties of PARP inhibitors. a Structures of 5 clinical therapeutic PARP inhibitors and the 2 PARP imaging agents. b Heatmap visualizing enzymatic activity screening of 10 small molecules against 12 PARP enzymes at 100 nM concentration (for additional concentrations, see Supplementary Fig. 1)
(§2) Assay was performed by BPS Bioscience, San Diego, CA. 100 µM DMSO solutions of each inhibitor were provided, and the assay was conducted after dilution to 100, 50, or 10 nM. […] Data was reported by BPS as % Enzyme Activity. Triplicates were combined to get a mean ± SD, and these were grouped and plotted onto a heatmap using Prism 7.
(§3) Supplementary Figure 1 | PARP enzyme family binding assays at additional concentrations.
(§4) histone substrate and biotin-labeled NAD+ at 100 nM (Fig. 1b), 50 nM (left) and 10 nM (right) for
(§5) each inhibitor and each enzyme.

TNKS2 = biological target: T2, TNKS2 (Homo sapiens, UniProt Q9H2K2); assay: as above; type: biochemical; settings: 100 nM inhibitor
T2 construct: purchased BPS Bioscience, San Diego, CA
T2 sequence (Q9H2K2 1-1166): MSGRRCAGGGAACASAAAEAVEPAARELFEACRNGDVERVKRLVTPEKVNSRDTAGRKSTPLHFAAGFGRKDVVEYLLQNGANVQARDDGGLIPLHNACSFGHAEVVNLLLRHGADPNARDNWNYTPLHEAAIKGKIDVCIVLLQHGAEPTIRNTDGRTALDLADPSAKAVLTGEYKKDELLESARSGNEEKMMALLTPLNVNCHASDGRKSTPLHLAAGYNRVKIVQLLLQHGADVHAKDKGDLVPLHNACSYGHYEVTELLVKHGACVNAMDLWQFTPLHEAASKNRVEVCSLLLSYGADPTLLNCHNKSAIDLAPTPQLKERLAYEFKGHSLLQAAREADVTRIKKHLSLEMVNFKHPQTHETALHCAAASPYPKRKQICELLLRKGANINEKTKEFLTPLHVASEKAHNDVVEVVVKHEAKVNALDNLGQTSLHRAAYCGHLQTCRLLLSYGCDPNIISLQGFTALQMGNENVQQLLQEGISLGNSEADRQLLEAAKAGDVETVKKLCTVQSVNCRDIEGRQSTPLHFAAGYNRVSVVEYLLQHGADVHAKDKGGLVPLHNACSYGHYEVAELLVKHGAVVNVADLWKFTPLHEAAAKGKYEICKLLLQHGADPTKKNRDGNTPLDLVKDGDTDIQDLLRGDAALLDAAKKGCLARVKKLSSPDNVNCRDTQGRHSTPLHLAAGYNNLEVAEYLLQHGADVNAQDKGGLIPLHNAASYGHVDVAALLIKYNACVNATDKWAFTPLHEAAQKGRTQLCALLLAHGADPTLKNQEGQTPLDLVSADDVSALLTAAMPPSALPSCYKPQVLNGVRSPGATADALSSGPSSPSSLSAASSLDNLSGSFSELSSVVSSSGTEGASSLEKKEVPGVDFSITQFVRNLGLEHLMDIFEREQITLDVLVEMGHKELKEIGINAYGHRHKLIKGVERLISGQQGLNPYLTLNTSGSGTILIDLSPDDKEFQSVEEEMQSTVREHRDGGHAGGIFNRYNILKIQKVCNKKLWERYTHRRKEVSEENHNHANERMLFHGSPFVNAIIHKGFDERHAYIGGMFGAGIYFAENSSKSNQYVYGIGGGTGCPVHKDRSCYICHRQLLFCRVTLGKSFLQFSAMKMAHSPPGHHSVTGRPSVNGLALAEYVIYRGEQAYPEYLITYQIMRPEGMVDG
Procedure: as §1, §2, §3, §4, §5

PARP2 = biological target: T3, PARP2 (Homo sapiens, UniProt Q9UGN5); assay: as above; type: biochemical; settings: 100 nM inhibitor
T3 construct: purchased BPS Bioscience, San Diego, CA
Procedure: as §1, §2, §3, §4, §5

PARP1 = biological target: T4, PARP1 (Homo sapiens, UniProt P09874); assay: as above; type: biochemical; settings: 100 nM inhibitor
T4 construct: purchased BPS Bioscience, San Diego, CA
Procedure: as §1, §2, §3, §4, §5

T4 sequence (P09874 whole entry): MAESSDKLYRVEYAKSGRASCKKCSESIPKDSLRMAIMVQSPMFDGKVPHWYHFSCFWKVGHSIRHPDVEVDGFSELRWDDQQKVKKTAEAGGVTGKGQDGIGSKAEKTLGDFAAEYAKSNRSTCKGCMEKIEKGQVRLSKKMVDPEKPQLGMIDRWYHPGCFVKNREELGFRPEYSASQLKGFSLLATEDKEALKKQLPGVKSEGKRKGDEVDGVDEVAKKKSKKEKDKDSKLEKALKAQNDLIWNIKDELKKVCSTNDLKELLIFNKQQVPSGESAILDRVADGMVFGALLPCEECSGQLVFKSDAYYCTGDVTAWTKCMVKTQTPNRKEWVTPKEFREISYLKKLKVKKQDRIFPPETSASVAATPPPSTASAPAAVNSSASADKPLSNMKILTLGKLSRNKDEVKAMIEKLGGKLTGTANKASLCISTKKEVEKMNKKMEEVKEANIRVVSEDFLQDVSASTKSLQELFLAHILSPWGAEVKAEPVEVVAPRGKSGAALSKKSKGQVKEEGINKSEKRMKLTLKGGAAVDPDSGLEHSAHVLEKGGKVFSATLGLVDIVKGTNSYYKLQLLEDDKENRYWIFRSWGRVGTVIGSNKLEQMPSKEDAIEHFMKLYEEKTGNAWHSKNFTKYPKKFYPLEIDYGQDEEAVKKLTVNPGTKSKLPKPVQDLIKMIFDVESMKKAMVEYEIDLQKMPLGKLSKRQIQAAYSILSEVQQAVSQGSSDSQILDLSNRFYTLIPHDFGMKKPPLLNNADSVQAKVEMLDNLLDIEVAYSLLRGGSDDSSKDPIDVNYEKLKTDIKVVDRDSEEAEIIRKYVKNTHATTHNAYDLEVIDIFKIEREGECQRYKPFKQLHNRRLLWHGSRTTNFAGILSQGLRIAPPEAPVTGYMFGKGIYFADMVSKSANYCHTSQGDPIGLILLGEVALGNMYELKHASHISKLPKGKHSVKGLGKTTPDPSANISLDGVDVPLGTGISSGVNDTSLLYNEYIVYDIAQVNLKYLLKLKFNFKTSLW
T3 sequence (Q9UGN5 whole entry): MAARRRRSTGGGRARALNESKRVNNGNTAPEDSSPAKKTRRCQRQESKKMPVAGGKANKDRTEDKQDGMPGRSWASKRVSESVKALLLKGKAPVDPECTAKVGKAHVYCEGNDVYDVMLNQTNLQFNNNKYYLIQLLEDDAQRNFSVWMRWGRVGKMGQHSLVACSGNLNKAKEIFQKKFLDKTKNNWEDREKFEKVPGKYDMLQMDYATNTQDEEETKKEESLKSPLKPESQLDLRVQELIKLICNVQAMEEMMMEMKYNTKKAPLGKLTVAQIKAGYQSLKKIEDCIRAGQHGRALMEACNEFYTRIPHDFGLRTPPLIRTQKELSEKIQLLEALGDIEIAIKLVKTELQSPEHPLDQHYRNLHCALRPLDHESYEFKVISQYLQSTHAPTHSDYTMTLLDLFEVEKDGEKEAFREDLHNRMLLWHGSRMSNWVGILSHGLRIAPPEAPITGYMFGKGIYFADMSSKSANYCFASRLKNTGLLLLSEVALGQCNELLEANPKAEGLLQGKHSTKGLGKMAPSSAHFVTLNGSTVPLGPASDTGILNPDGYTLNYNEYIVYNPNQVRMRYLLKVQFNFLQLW

| inhibition at 0.1 µM (PARP3) [%] | inhibition at 0.1 µM (TNKS2) [%] | inhibition at 0.1 µM (PARP2) [%] | inhibition at 0.1 µM (PARP1) [%] | Structure (SMILES) | Inhibition of PARylation (PAR signal) (PARylation in LX22 cells) | Inhibition of TNKS2 enzyme activity (TNKS2) | Inhibition of PARP3 enzyme activity (PARP3) [%] | Inhibition of PARP2 enzyme activity (PARP2) [%] | Inhibition of PARP1 enzyme activity (PARP1) [%] |
| --- | --- | --- | --- | --- | --- | --- | --- | --- | --- |
| ≤ 30 | ≤ 5 | > 90 | > 90 | CC1=CC(C)=[N+]2C1=Cc1ccc(CCC(=O)N3CCN(C(=O)c4cc(Cc5n[nH]c(=O)c6ccccc56)ccc4F)CC3)n1[B-]2(F)F [PARPi-FL] | reduced PAR signal, but not complete | – | – | – | – |
| – | – | – | – | Cn1ncnc1[C@H]1c2n[nH]c(=O)c3cc(F)cc(c23)N[C@@H]1c1ccc(F)cc1 [Talazoparib, (8S,9R)-5-Fluoro-8-(4-fluorophenyl)-9-(1-methyl-1H-1,2,4-triazol-5-yl)-2,7,8,9-tetrahydro-3H-pyrido[4,3,2-de]phthalazin-3-one] | – | exhibited inhibition | – | – | – |
| – | – | – | – | O=C(c1ccc(F)cc1)N1CCN(C(=O)c2cc(Cc3n[nH]c(=O)c4ccccc34)ccc2F)CC1 [^19F-PARPi] | nearly complete inhibition | ≤ 5% | ≤ 30 | > 90 | > 90 |
